Measured values reported in US12233086B2, “Biomarkers for neurogenerative disease” (Neuvivo, Inc., priority 2022, dated 2025).
Several values for one entry are separate records, joined by “and”; a condition that tells them apart may be missing. Equal values may be shown once. Read-outs that look alike come from different tables or passages of the source.

Legend:
[1] = test system: TGFB1; conditions: age≤65, baseline CRP>1.13 mg/L; p=0.02 for month 6
Description: (§1) Participants received a total of 20 infusions administered intravenously monthly over 6 cycles during a 6-month double-blind treatment period. […] The start of each cycle was separated by four weeks. Cycle 1 consisted of 30 min infusions over 5 consecutive days. Cycles 2, 3, 4, 5, and 6 each consisted of 3 consecutive daily infusions. ALSFRS-R and vital capacity measurements were performed monthly. The average rate of ALS disease progression (Average DP Rate) at baseline was defined as ALSFRS-R score change per month [(48−ALSFRS-R score at baseline)/months since ALS symptom onset from baseline]]. […] Plasma specimens for biomarker analysis were obtained at the beginning and end of the study (month 6, one month after last dose). All patients had to have completed the study to provide end of study plasma. The units expressed in this Example are hs-CRP units, abbreviated as CRP.

[2] = test system: ALS patients; conditions: plasma CRP greater than 1.13 mg/L; rates of ALSFRS-R and vital capacity decline; cited from earlier work
[3] = test system: Neopterin
Excerpt: (§2) Description of ALS Phase 2A trial and participants: Participants received a total of infusions administered intravenously over 6 cycles during a 25-week double-blind treatment period. There were 4 weeks between the start of each cycle. Cycle 1 consisted of 5 consecutive daily infusions. Cycles 2, 3, 4, 5, and 6 each consisted of 3 consecutive daily infusions. Plasma specimens for biomarker analysis were obtained at the beginning and end of study.
(§3) Source of patient specimens: The plasma specimens had been stored at −80° C. since the trial ended and were all evaluated for biomarker levels.

[4] = test system: HGF
Excerpt: as §2, §3

[5] = test system: IL-18
Excerpt: as §2, §3

[6] = test system: LBP
Excerpt: as §2, §3

[7] = test system: LPS
Excerpt: as §2, §3

[8] = test system: sCD163
Excerpt: as §2, §3

[9] = test system: EGF
Excerpt: as §2, §3

[10] = test system: IL-10
Excerpt: as §2, §3

[11] = test system: ALS patients
[12] = test system: ALS patients; conditions: for decline in VC over 6 months vs placebo (words): CRP>1.13 mg/L
Description: as §1
The clinical outcome data evaluated for the current study were the forced vital capacity measurements performed on all patients at baseline and every month until the end of study. Using the patient's age and height with the actual respiratory volume measured, the % predicted vital capacity (VC) was calculated as described.

[13] = test system: IL-6; conditions: age 40-65, CRP>1.13 mg/L
Description: as §3

[14] = test system: IL-8; conditions: age 40-65, CRP>1.13 mg/L
Description: as §3

[15] = test system: TNF-a; conditions: age 40-65, CRP>1.13 mg/L
Description: as §3

[16] = test system: CD16; conditions: phase 1 dose ascending study in ALS patients; cited from earlier work
[17] = test system: NfL; conditions: 6 months; p=0.09
[18] = test system: LPS:EGF; conditions: ratio increased over time in placebo
[19] = CRP>1.13 mg/L, aged 40-65, Wilcoxon p 0.04
[20] = NP001 2 mg/kg, N 14, age 40-65, CRP>1.13 mg/L, six months
[21] = CRP>1.13 mg/L, aged 40-65, Wilcoxon p 0.02
[22] = CRP>1.13 mg/L, listed as sodium chlorite
[23] = NP001 2 mg/kg, N 59, age≤65, CRP>1.13 mg/L
[24] = NP001 2 mg/kg, N 64, age≤65, CRP>1.13 mg/L
[25] = NP001 2 mg/kg, N 68, age≤65, CRP>1.13 mg/L
[26] = NP001 2 mg/kg, N 69, age≤65, CRP>1.13 mg/L
[27] = NP001 2 mg/kg, N 72, age≤65, CRP>1.13 mg/L
[28] = NP001 2 mg/kg, N 74, age≤65, CRP>1.13 mg/L

## sodium chlorite [NP001]
[1]
  plasma TGFB1 levels over the 6-month trial vs placebo: significantly increased
[2]
  disease progression vs placebo, post hoc evaluation of phase 2 studies: slowed disease progression
[3]; CRP>1.13 mg/L
  plasma neopterin change relative to placebo over 6 months: increased
[3]; [19]
  Neopterin: % difference between NP001-treated and placebo at 6 months (% median change from baseline): 18.1%
[3]; [20]
  % Neopterin change from baseline, Mean: 13.9%
  % Neopterin change from baseline, Median: 10.8%
[4]; CRP>1.13 mg/L
  plasma HGF change relative to placebo over 6 months: decreased
[4]; [21]
  HGF: % difference between NP001-treated and placebo at 6 months (% median change from baseline): −31.4%
[4]; [20]
  % HGF change from baseline, Mean: −7.6%
  % HGF change from baseline, Median: −14.3%
[5]; [21]
  IL-18: % difference between NP001-treated and placebo at 6 months (% median change from baseline): −58.3%
[5]; [22]
  plasma IL-18 change relative to placebo over 6 months (words): decreased
[5]; [20]
  % IL-18 change from baseline, Mean: 25.8%
  % IL-18 change from baseline, Median: −2.1%
[6]; CRP>1.13 mg/L
  plasma LBP change relative to placebo over 6 months: decreased
[6]; CRP>1.13 mg/L, aged 40-65, Wilcoxon p 0.006
  LBP: % difference between NP001-treated and placebo at 6 months (% median change from baseline): −25.9%
[6]; [20]
  % LBP change from baseline, Mean: −1.6%
  % LBP change from baseline, Median: −5.4%
[7]; [19]
  LPS: % difference between NP001-treated and placebo at 6 months (% median change from baseline): −51.8%
[7]; [22]
  plasma LPS change relative to placebo over 6 months (words): decreased
[7]; [20]
  % LPS change from baseline, Mean: −22.0%
  % LPS change from baseline, Median: −30.4%
[8]; CRP>1.13 mg/L
  plasma sCD163 change relative to placebo over 6 months: decreased
[8]; [21]
  sCD163: % difference between NP001-treated and placebo at 6 months (% median change from baseline): −19.6%
[8]; [20]
  % CD163 change from baseline, Mean: −3.5%
  % CD163 change from baseline, Median: −5.9%
[9]; CRP>1.13 mg/L
  plasma EGF change relative to placebo over 6 months: increased
[9]; [19]
  EGF: % difference between NP001-treated and placebo at 6 months (% median change from baseline): 32.4%
[9]; [20]
  % EGF change from baseline, Mean: 64.3%
  % EGF change from baseline, Median: 6.5%
[10]; CRP>1.13 mg/L
  plasma IL-10 change relative to placebo over 6 months: increased
[10]; [21]
  IL-10: % difference between NP001-treated and placebo at 6 months (% median change from baseline): 18.6%
[10]; [20]
  % IL-10 change from baseline, Mean: 38.8%
  % IL-10 change from baseline, Median: 0.0%
[11]; 2 mg/kg, CRP>1.13 mg/L, age 40-65, placebos lost 4.6 units (p=0.03)
  ALSFRS-R score lost over six months: 1.2 units
[11]; 2 mg/kg, age 40-65, CRP>1.13 mg/L, placebo 2 out of 17
  proportion of non-progressors (no decrease in ALSFRS-R score at 6 months): 6 out of 15
[11]; CRP>1.13 mg/L
  decline in ALSFRS-R over 6 months vs placebo (words): highly significant difference
[11]; CRP>1.13 mg/L, age 40-65, placebos less than 10% (p=0.08)
  non-progression rate (no decrease in ALSFRS-R score at 6 months): 35%
[11]; [22]
  decline in ALSFRS-R over 6 months vs placebo (words): significantly slowed
[11]; plasma CRP above the median value (1.13 mg/L)
  relationship between drug dose and change in ALSFRS-R score over six months: dose responsive relationship
[11]; symptom onset within the past three years, no CRP or age cutoff
  clinical activity in all ALS patients of the phase 2A study: did not show significant clinical activity
[12]; 2 mg/kg, age≤65, CRP>1.13 mg/L, placebos 2.1%
  average VC lost per month: 0.75 % VC per month
[12]
  decline in VC over 6 months vs placebo (words): improved
[12]; listed as sodium chlorite
  decline in VC over 6 months vs placebo (words): significantly slowed
[12]; [23]
  % VC change from baseline, Month 6, Mean: Mean: −9.1%
  % VC change from baseline, Month 6, Median: Median: −5.4%
[12]; [24]
  % VC change from baseline, Month 5, Mean: Mean: −9.4%
  % VC change from baseline, Month 5, Median: Median: −6.4%
[12]; [25]
  % VC change from baseline, Month 4, Mean: Mean: −8.1%
  % VC change from baseline, Month 4, Median: Median: −5.4%
[12]; [26]
  % VC change from baseline, Month 3, Mean: Mean: −6.5%
  % VC change from baseline, Month 3, Median: Median: −3.8%
[12]; [27]
  % VC change from baseline, Month 2, Mean: Mean: −4.6%
  % VC change from baseline, Month 2, Median: Median: −2.6%
[12]; [28]
  % VC change from baseline, Month 1, Mean: Mean: −2.5%
  % VC change from baseline, Month 1, Median: Median: −0.9%
[12]; age≤65, CRP<1.13 mg/L, Placebo −13.5%, p=0.83
  mean % VC change from baseline by the end of study, low CRP group: −16.4%
[12]; age≤65, CRP>1.13 mg/L, end of six-month study, p=0.05
  slower rate of VC loss compared to placebo: > 64% and 64%
[13]
  plasma IL-6 values over the six-month study: within the normal range and did not change
[14]
  plasma IL-8 values over the six-month study: within the normal range and did not change
[15]
  plasma TNF-a values over the six-month study: within the normal range and did not change
[16]
  monocyte activation marker CD16: dose dependent down regulation
[17]
  plasma NfL in treated non-progressors compared to progressors: trend towards a loss of plasma NfL
[18]
  ratio of LPS to EGF, trend over time: decreased over time
